Consider ten compounds from PMC3510080, “Identification of Compounds with Anti-Proliferative Activity against Trypanosoma brucei brucei Strain 427 by a Whole Cell Viability Based HTS Campaign” (PLoS Neglected Tropical Diseases, 2012).

SMILES strings stand for the structures. Values joined by “and” are separate entries in the source; they are usually repeats but may differ in a detail not shown here. Equal values may be shown once. Where only a bound is given, the exact number is not on record here.

The test system of one assay is HEK293 cells. The assay is described as follows: HEK293 Alamar Blue viability estimation assay. The settings on record: Homo sapiens, HEK293; read-out: Restest IC50 HEK. Format: cell-based, human. As for the experimental part: T.b. brucei lister 427 cells were maintained in log phase growth in 25 cm^2 tissue culture flasks (Corning, NY, USA) by sub-culturing at either 24 or 48 hour intervals. Cells were grown in HMI-9 medium, supplemented with 10% fetal calf serum (FCS) and 100 IU/ml penicillin/streptomycin (Invitrogen, Carlsbad, California, USA) with incubation at 5% CO2 at 37°C in humidified conditions. HEK293 cells were maintained in high glucose DMEM with L-glutamine, supplemented with 1× non-essential amino acids (NEAA; Invitrogen, USA) and 1 mM sodium pyruvate. Growth conditions were in 5% CO2 at 37°C, under humidified conditions.
Cells at 80% confluence were harvested and diluted in growth medium (high glucose DMEM supplemented with 10% FCS) to 7.27×10^4 cells/ml. Under sterile conditions, 55 µl of diluted cells per well were added to a black, clear bottomed 384-well lidded plate (BD Biosciences, Bedford, MA, USA) with a Multidrop liquid handler (Thermo Scientific, Barrington, IL, USA). Incubation times, compound additions and plate read were as per the trypanosome viability assay, with the exception that Alamar Blue was diluted in HEK293 growth media before addition, and incubation of Alamar Blue at 37°C, in 5% CO2, was for 4 hours, followed by incubation at room temperature for 20 hours. The activity of compounds against HEK293 cells was used to calculate the SI of mammalian to T.b. brucei cells. The control compound for HEK293 cells was puromycin (Calbiochem, USA).
Compounds identified from primary screening were retested against both T.b. brucei and HEK293 cells in duplicate and at varying concentrations to obtain a dose-response curve. Thus, a 5 µl sample of fresh compound stock solution (5 mM in DMSO) was cherry picked into 384-well plates and diluted 1∶10 in dilution medium (high glucose DMEM without FCS). Serial dilutions of these samples were then prepared in the same media by a Minitrak robotic liquid handler (Perkin Elmer, USA). […] A screening dose of 10.4 µM was included in the dilution series to enable reconfirmation of primary screening T.b. brucei activity.
The DMSO working concentration in the serial dilutions was maintained at 5%, giving a final assay concentration of 0.42% DMSO, except for the 41.7 µM test compound solution, where as previously stated the corresponding DMSO concentration was 0.83% v/v. […] Therefore the 41.7 µM test compound sample with 0.83% v/v DMSO was not used in the T.b. brucei assay and thus the top test compound concentration in this assay was 20.8 µM.
Compound activity in the retest campaign was calculated as percentage inhibition in relation to positive and negative controls, in the same manner as the primary screening campaign. The positive controls, pentamidine (2 µM final concentration) for T.b. brucei and puromycin (8 µM final concentration) for HEK293, were both screened in whole 384-well control plates. Whole 384-well plate controls were included after every batch of 20 compound plates, and were comprised of half a plate of negative control and half a plate of positive control. The negative control was the vehicle, […]. The negative control was also included in column 24 of each compound assay plate to determine signal variation from plate to plate and to calculate compound activity. The exception was the 41.7 µM compound dose used in the HEK293 assay. In these plates column 24 contained 0.83% DMSO as a negative control. A separate 384-well plate containing a 13 point dose-response of the reference compounds puromycin, pentamidine and diminazene, in triplicate, was also included per 20 compound test plate batch to estimate assay sensitivity.
These compounds were retested as in dose for N of three replicates, as described above for both T.b. brucei and HEK293.
With `CC(C)(C)C(=O)NCCc1csc(-c2cccc(F)c2)n1` [Compound 1], the IC50 is 41700 nM.

As for `O=C(Nc1ccc(Cl)c(-c2nc3ncccc3o2)c1)c1ccco1` [Compound 7], the IC50 was greater than 41700 nM.

For `O=C(NCCc1n[nH]c(-c2ccc(F)cc2)n1)c1cccc(F)c1` [Compound 2], the 50% inhibitory concentration (IC50) is 41700 nM.

Turning to `CCOc1ccc(OCc2ccc(C(=O)N3CCCC(C)C3)cc2)cc1` (centres unmarked) [Compound 3], the IC50 is 41700 nM.

The assay is the same for the next values; noted with them: Homo sapiens, HEK293; reference compound; read-out: IC50 against HEK293, retest screening campaign.
`COc1ccc(C[C@H](N)C(=O)N[C@H]2[C@@H](O)[C@H](n3cnc4c(N(C)C)ncnc43)O[C@@H]2CO)cc1` [Puromycin, puromycin, reference compound]: the IC50 was 1120 ± 155 nM.

Staying with this assay, now noted: Homo sapiens, HEK293; reference compound; read-out: IC50 in HEK293 assay, rescreening of resynthesized compounds.
With `COc1ccc(C[C@H](N)C(=O)N[C@H]2[C@@H](O)[C@H](n3cnc4c(N(C)C)ncnc43)O[C@@H]2CO)cc1` [Puromycin, puromycin, reference compound], the IC50 is 518 ± 28.1 nM.

Still in this assay, the particulars now being: pentamidine 1 µM, diminazene 40 µM.
Take `N=C(N)c1ccc(OCCCCCOc2ccc(C(=N)N)cc2)cc1` [Pentamidine, pentamidine, reference compound]: the “activity in the HEK293 assay at the doses screened, rescreening” value is “neither pentamidine nor diminazene displayed activity” and the “activity in the HEK293 assay at the doses screened, retest campaign” value was “Neither pentamidine nor diminazene displayed activity”.

For the next assay, the system named is T.b. rhodesiense STIB900. In words: T. b. rhodesiense STIB900 assay (resazurin); SI versus L6 cells. The assay is classed as cell-based, Trypanosoma brucei rhodesiense. Particulars: T.b. rhodesiense STIB900, 70 h; read-out: Compound activity T.R (IC50). On the procedure:
L6 rat skeletal myoblasts, [29] were purchased from the American Type Culture Collection (ATCC, Rockville, MD, USA; ATCC number CRL 1458). This cell line was used for cytotoxicity testing to calculate an SI against T.b. rhodesiense and screened alongside the T.b. rhodesiense, P. falciparum, T. cruzi and L. donovani assays. L6 were also the host cells for the T. cruzi assay. Assays were performed in 96-well microtiter plates, each well containing 100 µl of RPMI 1640 medium supplemented with 1% L-glutamine (200 mM), 10% FCS, and 4000 L6 cells. Serial drug dilutions of eleven 3-fold dilution steps covering a range from 100 to 0.002 µg/ml were prepared. After 70 hours of incubation the plates were inspected under an inverted microscope to assure growth of the controls and sterile conditions. Ten µl of resazurin solution (resazurin, 12.5 mg in 100 ml double-distilled water) was then added to each well and the plates incubated for another 2 hours. Then the plates were read with a Spectramax Gemini XS microplate fluorometer (Molecular Devices Cooperation, Sunnyvale, CA, USA) using an excitation wavelength of 536 nm and an emission wavelength of 588 nm. Data was analysed using the microplate reader software Softmax Pro (Molecular Devices, USA). Podophyllotoxin was used as a positive control in the assay.
T.b. rhodesiense STIB900 stock was isolated in 1982 from a human patient in Tanzania and after several mouse passages cloned and adapted to axenic culture conditions. Fifty microliters of Minimum Essential Medium (MEM) supplemented with 25 mM HEPES, 1 g/l additional glucose, 1% MEM non-essential amino acids (100×), 0.2 mM 2-mercaptoethanol, 1 mM Na-pyruvate and 15% heat inactivated horse serum was added to each well of a 96-well microtiter plate. Serial drug dilutions of eleven 3-fold dilution steps covering a range from 100 to 0.002 µg/ml were prepared. Four thousand bloodstream form cells of T.b. rhodesiense STIB 900 in 50 µl were added to each well and the plate incubated at 37°C under a 5% CO2 atmosphere for 70 hours. Ten microlitres of resazurin solution (resazurin, 12.5 mg in 100 ml double-distilled water) was then added to each well and incubation continued for a further 2–4 hours. Plates were then read with a Spectramax Gemini XS microplate fluorometer (Molecular Devices, USA) using an excitation wavelength of 536 nm and an emission wavelength of 588 nm. Data was analysed using the microplate reader software Softmax Pro (Molecular Devices, USA). The drug melarsoprol was a positive control against T.b. rhodesiense.
Take `CCc1ccccc1N=C(NCCN1CCOCC1)NC(=O)c1ccccc1` [Compound 8]: the IC50 came to 875 ± 65 nM.

With `Cc1cc(O)nc(-n2nc(C)cc2NC(=O)C2CCCC2)n1` [Compound 4], the IC50 was found to be 4850 ± 2080 nM.

Take `CC(C)(C)C(=O)NCCc1csc(-c2cccc(F)c2)n1` [Compound 1]: the IC50 worked out at 1470 ± 390 nM.

On to `O=C(Nc1ccc(Cl)c(-c2nc3ncccc3o2)c1)c1ccco1` [Compound 7], for which the IC50 came to 586 ± 73 nM.

In the case of `O=C(NCCc1n[nH]c(-c2ccc(F)cc2)n1)c1cccc(F)c1` [Compound 2], the IC50 came out at 6770 ± 545 nM.

`CCS(=O)(=O)N1CCCc2ccc(NS(=O)(=O)c3ccccc3F)cc21` [Compound 5]: the IC50 is 14000 nM and 14400 nM.

For `CCOc1ccc(OCc2ccc(C(=O)N3CCCC(C)C3)cc2)cc1` (centres unmarked) [Compound 3], the IC50 was 854 ± 332 nM.

As for `CCC(C)NC(=O)c1nc(-c2ccccc2)cnc1N` (centres unmarked) [Compound 6], the IC50 was determined as 967 ± 450 nM.

The assay is the same for the next values; noted with them: Trypanosoma brucei, L6, 70 h, T.b. rhodesiense STIB900, 70 h; read-out: Compound activity T.R (IC50).
As to `CCc1ccccc1N=C(NCCN1CCOCC1)NC(=O)c1ccccc1` [Compound 8], the IC50 was 880 nM.

As to `Cc1cc(O)nc(-n2nc(C)cc2NC(=O)C2CCCC2)n1` [Compound 4], the IC50 is 4800 nM.

With `CC(C)(C)C(=O)NCCc1csc(-c2cccc(F)c2)n1` [Compound 1], the IC50 was 1500 nM.

Take `O=C(Nc1ccc(Cl)c(-c2nc3ncccc3o2)c1)c1ccco1` [Compound 7]: the IC50 was 590 nM.

Consider `O=C(NCCc1n[nH]c(-c2ccc(F)cc2)n1)c1cccc(F)c1` [Compound 2], for which the IC50 worked out at 6800 nM.

With `CCS(=O)(=O)N1CCCc2ccc(NS(=O)(=O)c3ccccc3F)cc21` [Compound 5], the IC50 is less than 10000 nM.

For `CCOc1ccc(OCc2ccc(C(=O)N3CCCC(C)C3)cc2)cc1` (centres unmarked) [Compound 3], the IC50 stood at 850 nM.

As to `CCC(C)NC(=O)c1nc(-c2ccccc2)cnc1N` (centres unmarked) [Compound 6], the IC50 is 970 nM.

Staying with this assay, now noted: relative to L6 cells.
Turning to `CCc1ccccc1N=C(NCCN1CCOCC1)NC(=O)c1ccccc1` [Compound 8], the “Selectivity Index T.R” value is recorded as 150.

With `Cc1cc(O)nc(-n2nc(C)cc2NC(=O)C2CCCC2)n1` [Compound 4], the “Selectivity Index T.R” value is 0.19 and 0.186.

With `CC(C)(C)C(=O)NCCc1csc(-c2cccc(F)c2)n1` [Compound 1], the “Selectivity Index T.R” value is 42 and 42.3.

For the compound `CCOc1ccc(OCc2ccc(C(=O)N3CCCC(C)C3)cc2)cc1` (centres unmarked) [Compound 3], the “Selectivity Index T.R” value is 60 and 58.5.

Regarding `CCC(C)NC(=O)c1nc(-c2ccccc2)cnc1N` (centres unmarked) [Compound 6], the “Selectivity Index T.R” value was 18 and 18.4.
